Experimental data published in patent publication US9386769B2 (HUNAN RESEARCH INSTITUTE OF CHEMICAL INDUSTRY CO., LTD., priority 2011, dated 2016).
Like-named read-outs stand apart in the source and are kept apart here. Each block holds one molecule with its values, some of them ahead of it.

How the values were obtained:
Alternaria alternata = assay: Fungicidal activity against Alternaria alternata, mycelial growth inhibition on PDA plate; type: cell-based
Protocol: (§1) Bioassay method: Stock solution of every test compound was prepared in an appropriate solvent such as N,N-dimethylformamide (DMF), and then diluted to the required test concentrations with sterile water containing 0.1% Tween 80; Pipetted 3 mL of test solution to 27 mL of potato dextrose agar (PDA) medium at 45° C. and poured into a Petri dish to prepare a plate after shaking thoroughly; 6 mm of diameter of fungi cake from the edge of 7-day-old […] colony was inoculated on the central of the plate, wherein mycelium facing down, and cultured in the culture tank at 28° C. The diameter of fungi spread was calculated 4 days later using the control group tested with the diluent only. Test was run 4 times. Data were subjected to EXCEL statistical software analysis and the growth inhibition of the tested compound was calculated according to the corresponding control, the activity was rated on the basis of percentage of growth inhibition using the following rating system: A, inhibition (%)>90; B, 90≧inhibition (%)>70; C, 70≧inhibition (%)>50; D, inhibition (%)≦50.
Fungicidal activities against Alternaria alternata of compounds represented by the general formula (I) were evaluated with the corresponding method in Example 18, and some of the test results are shown in Table 9 to Table 10.

Sclerotinia sclerotiorum = assay: Fungicidal activity against Sclerotinia sclerotiorum, mycelial growth inhibition on PDA plate; type: cell-based; details: for inhibition at 0.1562 µg/mL: 0.1562 mg/L; for inhibition at 0.3125 µg/mL: 0.3125 mg/L; for inhibition at 0.625 µg/mL: 0.625 mg/L; for inhibition at 1.255 µg/mL: 1.255 mg/L; for inhibition at 25 µg/mL / activities against Sclerotinia sclerotiorum (growth inhibition rating): 25 mg/L; for inhibition at 25 µg/mL: read-out: activities against Sclerotinia sclerotiorum (growth inhibition rating)
Protocol: as §1

Botrytis cinerea = assay: Fungicidal activity against Botrytis cinerea, mycelial growth inhibition on PDA plate; type: cell-based; details: for inhibition at 0.1562 µg/mL: 0.1562 mg/L; for inhibition at 0.3125 µg/mL: 0.3125 mg/L; for inhibition at 0.625 µg/mL: 0.625 mg/L; for inhibition at 1.255 µg/mL: 1.255 mg/L; for inhibition at 25 µg/mL / activities against Botrytis cinerea (growth inhibition rating): 25 mg/L; for inhibition at 25 µg/mL: read-out: activities against Botrytis cinerea (growth inhibition rating)
Protocol: as §1
Fungicidal activities against Botrytis cinerea of compounds represented by the general formula (I) were evaluated with the corresponding method in Example 18, and some of the test results are shown in Table 6 to Table 8.

Aphis fabae = assay: Insecticidal activity against Aphis fabae, dipping of horsebean seedlings; type: in vivo; details: 24 h; for mortality at 500 µg/mL: read-out: activities against Aphis fabae (mortality rating)
Protocol: Bioassay method: Stock solution of every test compound was prepared in an appropriate solvent such as N,N-dimethylformamide, and a small amount of Tween 80 was added as emulsification agent, then diluted to the required test concentrations with distilled water, using the control group tested with distilled water only. More than 20 adults of Aphis fabae were transferred to newly unearthed horsebean seedlings and 24 hr later, horsebean seedlings with Aphis fabae were dipped in the test solution for 5 s, then allowed to dry with filter paper, transplanted to the absorbent sponge and covered with a glass tube, then kept in a room for normal cultivation. Each assay contained three replications, and results were averaged. Mortality was assessed 24 hr after the treatment. The activity was rated to A, B, C or D according to the rating system in Example 22.

[1] = Sclerotinia sclerotiorum, Table 5, read-out: activities against Sclerotinia sclerotiorum (growth inhibition)
[2] = Sclerotinia sclerotiorum, 2.5 mg/L, Table 4, read-out: activities against Sclerotinia sclerotiorum (growth inhibition)
[3] = Sclerotinia sclerotiorum, 2.5 mg/L, Table 5, read-out: activities against Sclerotinia sclerotiorum (growth inhibition)
[4] = Sclerotinia sclerotiorum, 5 mg/L, Table 4, read-out: activities against Sclerotinia sclerotiorum (growth inhibition)
[5] = Sclerotinia sclerotiorum, 5 mg/L, Table 5, read-out: activities against Sclerotinia sclerotiorum (growth inhibition)
[6] = Sclerotinia sclerotiorum, 10 mg/L, Table 4, read-out: activities against Sclerotinia sclerotiorum (growth inhibition)
[7] = Botrytis cinerea, Table 8, read-out: activities against Botrytis cinerea (growth inhibition)
[8] = Botrytis cinerea, 2.5 mg/L, Table 7, read-out: activities against Botrytis cinerea (growth inhibition)
[9] = Botrytis cinerea, 2.5 mg/L, Table 8, read-out: activities against Botrytis cinerea (growth inhibition)
[10] = Botrytis cinerea, 5 mg/L, Table 7, read-out: activities against Botrytis cinerea (growth inhibition)
[11] = Botrytis cinerea, 5 mg/L, Table 8, read-out: activities against Botrytis cinerea (growth inhibition)
[12] = Botrytis cinerea, 10 mg/L, Table 7, read-out: activities against Botrytis cinerea (growth inhibition)
[13] = read-out: activities against Aphis fabae (mortality)

melting point: 71.4 to 74.1 °C
Structure (SMILES): CCN(Cc1cnc(Cl)s1)c1nc(Cl)ccc1[N+](=O)[O-]

melting point: 95.8 to 96.8 °C
Structure (SMILES): CCN(Cc1cnc(Cl)s1)c1nc(Cl)ccc1Cl

Structure (SMILES): CCOc1ccc([N+](=O)[O-])c(N(CC)Cc2cnc(Cl)s2)n1 [Compound 04, 6-ethoxy-N-((2-chlorothiazole-5-yl)methyl)-N-ethyl-3-nitropyridine-2-amine]
inhibition at 2.5 µg/mL (Alternaria alternata; Alternaria alternata, 2.5 mg/L, read-out: activities against Alternaria alternata (growth inhibition)): 55%
inhibition at 5 µg/mL (Alternaria alternata; Alternaria alternata, 5 mg/L, read-out: activities against Alternaria alternata (growth inhibition)): 60%
inhibition at 10 µg/mL (Alternaria alternata; Alternaria alternata, 10 mg/L, read-out: activities against Alternaria alternata (growth inhibition)): 70%
inhibition at 25 µg/mL (Alternaria alternata; Alternaria alternata, 25 mg/L, read-out: activities against Alternaria alternata (growth inhibition rating)): 70 to 90%
inhibition at 0.1562 µg/mL (Sclerotinia sclerotiorum; [1]): 53%
inhibition at 0.3125 µg/mL (Sclerotinia sclerotiorum; [1]): 59%
inhibition at 0.625 µg/mL (Sclerotinia sclerotiorum; [1]): 61%
inhibition at 1.255 µg/mL (Sclerotinia sclerotiorum; [1]): 65%
inhibition at 2.5 µg/mL (Sclerotinia sclerotiorum; [2]): 75%
inhibition at 2.5 µg/mL (Sclerotinia sclerotiorum; [3]): 70%
inhibition at 5 µg/mL (Sclerotinia sclerotiorum; [4]): 90%
inhibition at 5 µg/mL (Sclerotinia sclerotiorum; [5]): 75%
inhibition at 10 µg/mL (Sclerotinia sclerotiorum; [6]): 100%
inhibition at 25 µg/mL (Sclerotinia sclerotiorum; Sclerotinia sclerotiorum): > 90%
inhibition at 0.1562 µg/mL (Botrytis cinerea; [7]): 63%
inhibition at 0.3125 µg/mL (Botrytis cinerea; [7]): 76%
inhibition at 0.625 µg/mL (Botrytis cinerea; [7]): 81%
inhibition at 1.255 µg/mL (Botrytis cinerea; [7]): 82%
inhibition at 2.5 µg/mL (Botrytis cinerea; [8]): 70%
inhibition at 2.5 µg/mL (Botrytis cinerea; [9]): 87%
inhibition at 5 µg/mL (Botrytis cinerea; [10]): 78%
inhibition at 5 µg/mL (Botrytis cinerea; [11]): 90%
inhibition at 10 µg/mL (Botrytis cinerea; [12]): 94%
inhibition at 25 µg/mL (Botrytis cinerea; Botrytis cinerea): > 90%
mortality at 500 µg/mL (Aphis fabae): > 90%
mortality at 6.25 µg/mL (Aphis fabae; [13]): 0%
mortality at 25 µg/mL (Aphis fabae; [13]): 26.7%
mortality at 100 µg/mL (Aphis fabae; [13]): 46.7%

Structure (SMILES): CCCOc1ccc([N+](=O)[O-])c(N(CC)Cc2cnc(Cl)s2)n1 [Compound 07]
activities against Alternaria alternata (growth inhibition) (Alternaria alternata; 2.5 mg/L): 20%
activities against Alternaria alternata (growth inhibition) (Alternaria alternata; 5 mg/L): 36%
activities against Alternaria alternata (growth inhibition) (Alternaria alternata; 10 mg/L): 45%
activities against Alternaria alternata (growth inhibition rating) (Alternaria alternata; 25 mg/L): C (C, 70≧inhibition (%)>50)
activities against Sclerotinia sclerotiorum (growth inhibition rating) (Sclerotinia sclerotiorum): B (B, 90≧inhibition (%)>70)
activities against Botrytis cinerea (growth inhibition) (Botrytis cinerea; 2.5 mg/L, Table 7): 44%
activities against Botrytis cinerea (growth inhibition) (Botrytis cinerea; 5 mg/L, Table 7): 52%
activities against Botrytis cinerea (growth inhibition) (Botrytis cinerea; 10 mg/L, Table 7): 68%
activities against Botrytis cinerea (growth inhibition rating) (Botrytis cinerea): B (B, 90≧inhibition (%)>70)

Structure (SMILES): CCCN(Cc1cnc(Cl)s1)c1nc(OC)ccc1[N+](=O)[O-] [Compound 08]
activities against Alternaria alternata (growth inhibition) (Alternaria alternata; 2.5 mg/L): 45%
activities against Alternaria alternata (growth inhibition) (Alternaria alternata; 5 mg/L): 48%
activities against Alternaria alternata (growth inhibition) (Alternaria alternata; 10 mg/L): 60%
activities against Alternaria alternata (growth inhibition rating) (Alternaria alternata; 25 mg/L): C (C, 70≧inhibition (%)>50)
activities against Sclerotinia sclerotiorum (growth inhibition rating) (Sclerotinia sclerotiorum): A (A, inhibition (%)>90)
activities against Botrytis cinerea (growth inhibition) (Botrytis cinerea; 2.5 mg/L, Table 7): 68%
activities against Botrytis cinerea (growth inhibition) (Botrytis cinerea; 5 mg/L, Table 7): 70%
activities against Botrytis cinerea (growth inhibition) (Botrytis cinerea; 10 mg/L, Table 7): 70%
activities against Botrytis cinerea (growth inhibition rating) (Botrytis cinerea): A (A, inhibition (%)>90)

Structure (SMILES): CCCN(Cc1cnc(Cl)s1)c1nc(OCC)ccc1[N+](=O)[O-] [Compound 09]
activities against Sclerotinia sclerotiorum (growth inhibition rating) (Sclerotinia sclerotiorum): A (A, inhibition (%)>90)
activities against Botrytis cinerea (growth inhibition) (Botrytis cinerea; 2.5 mg/L, Table 7): 52%
activities against Botrytis cinerea (growth inhibition) (Botrytis cinerea; 5 mg/L, Table 7): 65%
activities against Botrytis cinerea (growth inhibition) (Botrytis cinerea; 10 mg/L, Table 7): 65%
activities against Botrytis cinerea (growth inhibition rating) (Botrytis cinerea): A (A, inhibition (%)>90)

Structure (SMILES): CCCOc1ccc([N+](=O)[O-])c(N(CCC)Cc2cnc(Cl)s2)n1 [Compound 10]
activities against Sclerotinia sclerotiorum (growth inhibition rating) (Sclerotinia sclerotiorum): B (B, 90≧inhibition (%)>70)
activities against Botrytis cinerea (growth inhibition rating) (Botrytis cinerea): B (B, 90≧inhibition (%)>70)

Structure (SMILES): COc1ccc([N+](=O)[O-])c(N(C)Cc2cnc(Cl)s2)n1 [Compound 17]
activities against Alternaria alternata (growth inhibition rating) (Alternaria alternata; 25 mg/L): B (B, 90≧inhibition (%)>70)

Structure (SMILES): CCNc1ccc([N+](=O)[O-])c(N(CC)Cc2cnc(Cl)s2)n1 [Compound 24]
activities against Botrytis cinerea (growth inhibition rating) (Botrytis cinerea): B (B, 90≧inhibition (%)>70)

Structure (SMILES): CCN(Cc1cnc(Cl)s1)c1nc(N(C)C)ccc1[N+](=O)[O-] [Compound 28, 6-dimethylamino-N-((2-chlorothiazole-5-yl)methyl)-N-ethyl-3-nitropyridine-2-amine]
inhibition at 1.25 µg/mL (Sclerotinia sclerotiorum; Sclerotinia sclerotiorum, 1.25 mg/L, Table 4, read-out: activities against Sclerotinia sclerotiorum (growth inhibition)): 42%
inhibition at 2.5 µg/mL (Sclerotinia sclerotiorum; [2]): 64%
inhibition at 5 µg/mL (Sclerotinia sclerotiorum; [4]): 82%
inhibition at 10 µg/mL (Sclerotinia sclerotiorum; [6]): 90%
inhibition at 25 µg/mL (Sclerotinia sclerotiorum; Sclerotinia sclerotiorum): > 90%
inhibition at 1.25 µg/mL (Botrytis cinerea; Botrytis cinerea, 1.25 mg/L, Table 7, read-out: activities against Botrytis cinerea (growth inhibition)): 79%
inhibition at 2.5 µg/mL (Botrytis cinerea; [8]): 86%
inhibition at 5 µg/mL (Botrytis cinerea; [10]): 91%
inhibition at 10 µg/mL (Botrytis cinerea; [12]): 96%
inhibition at 25 µg/mL (Botrytis cinerea; Botrytis cinerea): > 90%
melting point: 74.6 to 78.4 °C

Structure (SMILES): CCOc1ccc([N+](=O)[O-])c(N(Cc2cnc(Cl)s2)C(C)C)n1 [Compound 31]
activities against Botrytis cinerea (growth inhibition rating) (Botrytis cinerea): B (B, 90≧inhibition (%)>70)

Structure (SMILES): CCN(Cc1cnc(Br)s1)c1nc(OC)ccc1[N+](=O)[O-] [Compound 33, 6-methoxy-N-((2-bromothiazole-5-yl)methyl)-N-ethyl-3-nitropyridine-2-amine]
inhibition at 2.5 µg/mL (Sclerotinia sclerotiorum; [2]): 91%
inhibition at 5 µg/mL (Sclerotinia sclerotiorum; [4]): 100%
inhibition at 10 µg/mL (Sclerotinia sclerotiorum; [6]): 100%
inhibition at 25 µg/mL (Sclerotinia sclerotiorum; Sclerotinia sclerotiorum): > 90%
inhibition at 25 µg/mL (Botrytis cinerea; Botrytis cinerea): 70 to 90%

Structure (SMILES): CCN(Cc1sc(C)nc1C)c1nc(OC)ccc1[N+](=O)[O-] [Compound 44]
activities against Alternaria alternata (growth inhibition rating) (Alternaria alternata; 25 mg/L): B (B, 90≧inhibition (%)>70)
activities against Sclerotinia sclerotiorum (growth inhibition) (Sclerotinia sclerotiorum; 2.5 mg/L, Table 4): 70%
activities against Sclerotinia sclerotiorum (growth inhibition) (Sclerotinia sclerotiorum; 5 mg/L, Table 4): 75%
activities against Sclerotinia sclerotiorum (growth inhibition) (Sclerotinia sclerotiorum; 10 mg/L, Table 4): 87%
activities against Sclerotinia sclerotiorum (growth inhibition rating) (Sclerotinia sclerotiorum): A (A, inhibition (%)>90)
activities against Botrytis cinerea (growth inhibition rating) (Botrytis cinerea): A (A, inhibition (%)>90)

Structure (SMILES): CCOc1nc(N(CC)Cc2cnc(Cl)s2)ccc1[N+](=O)[O-] [Compound 45]
mortality at 500 µg/mL (Aphis fabae): 70 to 90%

Structure (SMILES): COc1nc(NCc2cnc(Cl)s2)ccc1[N+](=O)[O-] [Compound 47]
activities against Botrytis cinerea (growth inhibition rating) (Botrytis cinerea): C (C, 70≧inhibition (%)>50)

Structure (SMILES): COC(=O)NC(=S)Nc1ccccc1NC(=S)NC(=O)OC [Thiophanate-Methyl, reference compound]
inhibition at 0.1562 µg/mL (Sclerotinia sclerotiorum; [1]): 33%
inhibition at 0.3125 µg/mL (Sclerotinia sclerotiorum; [1]): 47%
inhibition at 0.625 µg/mL (Sclerotinia sclerotiorum; [1]): 63%
inhibition at 1.255 µg/mL (Sclerotinia sclerotiorum; [1]): 72%
inhibition at 2.5 µg/mL (Sclerotinia sclerotiorum; [3]): 77%
inhibition at 5 µg/mL (Sclerotinia sclerotiorum; [5]): 85%
inhibition at 0.1562 µg/mL (Botrytis cinerea; [7]): 18%
inhibition at 0.3125 µg/mL (Botrytis cinerea; [7]): 75%
inhibition at 0.625 µg/mL (Botrytis cinerea; [7]): 88%
inhibition at 1.255 µg/mL (Botrytis cinerea; [7]): 93%
inhibition at 2.5 µg/mL (Botrytis cinerea; [9]): 98%
inhibition at 5 µg/mL (Botrytis cinerea; [11]): 100%
